Columns and labels:
Plasmodium falciparum [1] = assay: MMV: Inhibition of Plasmodium falciparum 3D7 at 5uM compound concentration.; format: functional
Plasmodium falciparum [2] = assay: MMV: Inhibition of Plasmodium falciparum K1 (EC50).; format: functional, organism-based
Trypanosoma cruzi = assay: MMV: Inhibition of Trypanosoma cruzi (Tulahuen C4 LacZ) (Chagas in vitro).; format: functional, organism-based
[3] = system: Trypanosoma brucei brucei; assay: MMV: Inhibition of Trypanosoma brucei brucei (Squib 427) (HAT in vitro).; format: functional, organism-based
[4] = system: Trypanosoma brucei rhodesiense; assay: MMV: Inhibition of Trypanosoma brucei rhodesiense (STIB 900) (HAT in vitro).; format: functional, organism-based
Leishmania infantum = assay: MMV: Inhibition of Leishmania infantum (MHOM/MA/BE/67) in vitro.; format: functional, organism-based
[5] = MMV: Cytotoxicity against human fibroblasts (MRC-5) cells.; conditions: MRC-5 cells (human fibroblasts)
Plasmodium falciparum [6] = assay: MMV: Inhibition of Plasmodium falciparum 3D7 (EC50).; format: functional, organism-based

## Cc1ccc(S(=O)(=O)c2c(COC(=O)c3cccc(C)c3)c(-c3ccccc3)nn2C)cc1
Plasmodium falciparum [1]
  inhibition at 5 µM: 95%
Plasmodium falciparum [2]
  EC50: 0.776 µM
Trypanosoma cruzi
  IC50: 23.6 µM
[3]
  IC50: 16.3 µM
[4]
  IC50: 16.5 µM
Leishmania infantum
  IC50: 17.3 µM
[5]
  IC50: > 32 µM

## Cc1cc(=O)oc2c1ccc1oc(C(=O)c3ccccc3)c(C)c12
Plasmodium falciparum [1]
  inhibition at 5 µM: 94%
Plasmodium falciparum [2]
  EC50: 0.683 µM
Trypanosoma cruzi
  IC50: > 32 µM
[3]
  IC50: > 32 µM
[4]
  IC50: 20.8 µM
Leishmania infantum
  IC50: > 32 µM
[5]
  IC50: 6.35 µM

## COc1ccc(C(=O)C2CC2c2ccc(Cl)cc2)cc1 (centres undefined)
Plasmodium falciparum [1]
  inhibition at 5 µM: 94%
Plasmodium falciparum [6]
  EC50: 1.06 µM
Trypanosoma cruzi
  IC50: > 32 µM
[3]
  IC50: > 32 µM
[4]
  IC50: > 32 µM
Leishmania infantum
  IC50: > 32 µM
[5]
  IC50: > 32 µM

## CCCn1c(=N)c(C(=O)NC2CCCCC2)cc2c(=O)n3cccc(C)c3nc21
Plasmodium falciparum [1]
  inhibition at 5 µM: 96%
Plasmodium falciparum [6]
  EC50: 1.11 µM
Trypanosoma cruzi
  IC50: > 32 µM
[3]
  IC50: 16.1 µM
[4]
  IC50: 8.44 µM
Leishmania infantum
  IC50: > 32 µM
[5]
  IC50: > 32 µM

## COc1cc(OC)cc(N2C(=O)N(Cc3ccc(C(C)(C)C)cc3)c3ccccc3S2(=O)=O)c1
Plasmodium falciparum [1]
  inhibition at 5 µM: 97%
Plasmodium falciparum [6]
  EC50: 1.43 µM
Trypanosoma cruzi
  IC50: 8.64 µM
[3]
  IC50: 18.4 µM
[4]
  IC50: 4.06 µM
Leishmania infantum
  IC50: 16.2 µM
[5]
  IC50: > 32 µM

## COc1ccc(CNC(=O)c2cc3c(=O)n4ccccc4nc3n(CCc3ccccc3)c2=N)cc1
Plasmodium falciparum [1]
  inhibition at 5 µM: 95%
Plasmodium falciparum [6]
  EC50: 1.06 µM
Trypanosoma cruzi
  IC50: 4.91 µM
[3]
  IC50: 11.9 µM
[4]
  IC50: 3.15 µM
Leishmania infantum
  IC50: 13.6 µM
[5]
  IC50: 14.7 µM

## Fc1ccc2[nH]c3c(NCCCN4CCOCC4)ncnc3c2c1
Plasmodium falciparum [1]
  inhibition at 5 µM: 98%
Plasmodium falciparum [6]
  EC50: 0.345 µM
Trypanosoma cruzi
  IC50: > 32 µM
[3]
  IC50: > 32 µM
[4]
  IC50: 18.3 µM
Leishmania infantum
  IC50: > 32 µM
[5]
  IC50: > 32 µM

## Cc1ccc(Cn2c(N3CCC(C(=O)NCc4cccs4)CC3)nc3ccccc32)cc1
Plasmodium falciparum [1]
  inhibition at 5 µM: 73%
Plasmodium falciparum [6]
  EC50: 0.947 µM
Trypanosoma cruzi
  IC50: > 32 µM
[3]
  IC50: > 32 µM
[4]
  IC50: > 32 µM
Leishmania infantum
  IC50: 25.4 µM
[5]
  IC50: > 32 µM

## O=C(Nc1ccc(CN2CCOCC2)cc1)c1ccc(-c2ccc(Br)cc2)o1
Plasmodium falciparum [1]
  inhibition at 5 µM: 96%
Plasmodium falciparum [6]
  EC50: 1.36 µM
Trypanosoma cruzi
  IC50: 11 µM
[3]
  IC50: 3.61 µM
[4]
  IC50: 3.86 µM
Leishmania infantum
  IC50: 18.4 µM
[5]
  IC50: 4.81 µM

## C=CC12CCN(CC1)C(C(O)c1ccnc3ccc(OC)cc13)C2 (centres undefined)
Plasmodium falciparum [2]
  EC50: 0.0281 µM
Trypanosoma cruzi
  IC50: > 32 µM
[3]
  IC50: > 32 µM
[4]
  IC50: 16 µM
Leishmania infantum
  IC50: > 32 µM
[5]
  IC50: > 32 µM

## CC(Oc1ccc(NC(=O)c2cccs2)cc1)C(=O)c1ccc(Cl)cc1 (centres undefined)
Plasmodium falciparum [1]
  inhibition at 5 µM: 87%
Plasmodium falciparum [6]
  EC50: 1.03 µM
Trypanosoma cruzi
  IC50: 15.4 µM
[3]
  IC50: 15.5 µM
[4]
  IC50: 10.3 µM
Leishmania infantum
  IC50: > 32 µM
[5]
  IC50: > 32 µM

## COc1cc(CNCCc2ccc(Cl)cc2)cc(OC)c1O
Plasmodium falciparum [1]
  inhibition at 5 µM: 97%
Plasmodium falciparum [6]
  EC50: 1.79 µM
Trypanosoma cruzi
  IC50: > 32 µM
[3]
  IC50: 15 µM
[4]
  IC50: 12.1 µM
Leishmania infantum
  IC50: > 32 µM
[5]
  IC50: > 32 µM

## CCN1CCN(Cc2ccc(NC(=O)c3cc4ccc5cccnc5c4[nH]3)cc2)CC1
Plasmodium falciparum [1]
  inhibition at 5 µM: 70%
Plasmodium falciparum [6]
  EC50: 0.361 µM
Trypanosoma cruzi
  IC50: 8 µM
[3]
  IC50: 3.78 µM
[4]
  IC50: 0.928 µM
Leishmania infantum
  IC50: 6.35 µM
[5]
  IC50: 8.47 µM

## Cc1cc(C)c2nc(N3CCC(C(=O)NCCCN4CCC(N5CCCCC5)CC4)CC3)sc2c1
Plasmodium falciparum [1]
  inhibition at 5 µM: 98%
Plasmodium falciparum [6]
  EC50: 0.697 µM
Trypanosoma cruzi
  IC50: 0.85 µM
[3]
  IC50: 0.22 µM
[4]
  IC50: < 0.125 µM
Leishmania infantum
  IC50: 4.06 µM
[5]
  IC50: 4.25 µM

## O=C(Nc1ccc(-c2nc3ccccc3[nH]2)cc1)c1ccc(Cl)c(Cl)c1
Plasmodium falciparum [1]
  inhibition at 5 µM: 97%
Plasmodium falciparum [6]
  EC50: 0.838 µM
Trypanosoma cruzi
  IC50: > 32 µM
[3]
  IC50: > 32 µM
[4]
  IC50: > 32 µM
Leishmania infantum
  IC50: > 32 µM
[5]
  IC50: > 32 µM

## Cc1[nH]c(-c2ccc(F)cc2)cc1C(=O)NC1CCN(Cc2ccccc2)CC1
Plasmodium falciparum [1]
  inhibition at 5 µM: 99%
Plasmodium falciparum [6]
  EC50: 0.771 µM
Trypanosoma cruzi
  IC50: > 32 µM
[3]
  IC50: 6.26 µM
[4]
  IC50: 4.03 µM
Leishmania infantum
  IC50: > 32 µM
[5]
  IC50: > 32 µM

## CC(=O)NCCc1nc2ccccc2n1Cc1ccc(C(C)C)cc1
Plasmodium falciparum [1]
  inhibition at 5 µM: 97%
Plasmodium falciparum [6]
  EC50: 1.79 µM
Trypanosoma cruzi
  IC50: > 32 µM
[3]
  IC50: > 32 µM
[4]
  IC50: > 32 µM
Leishmania infantum
  IC50: > 32 µM
[5]
  IC50: > 32 µM

## CCOc1cc(Br)c(C(C)NC(=O)c2cccc(OC)c2)cc1OCC (centres undefined)
Plasmodium falciparum [1]
  inhibition at 5 µM: 96%
Plasmodium falciparum [6]
  EC50: 1.43 µM
Trypanosoma cruzi
  IC50: > 32 µM
[3]
  IC50: > 32 µM
[4]
  IC50: > 32 µM
Leishmania infantum
  IC50: > 32 µM
[5]
  IC50: > 32 µM

## C=CCc1c(C)nc2ccccc2c1O
Plasmodium falciparum [1]
  inhibition at 5 µM: 85%
Plasmodium falciparum [6]
  EC50: 1.29 µM
Trypanosoma cruzi
  IC50: > 32 µM
[3]
  IC50: > 32 µM
[4]
  IC50: > 32 µM
Leishmania infantum
  IC50: > 32 µM
[5]
  IC50: > 32 µM

## CCOc1ccc(Nc2c3ccccc3nc3ccccc23)cc1
Plasmodium falciparum [1]
  inhibition at 5 µM: 97%
Plasmodium falciparum [6]
  EC50: 1.06 µM
Trypanosoma cruzi
  IC50: 1.25 µM
[3]
  IC50: 3.45 µM
[4]
  IC50: 0.976 µM
Leishmania infantum
  IC50: 1.59 µM
[5]
  IC50: 8.44 µM

## CCn1c2c(c(=N)c3c1CCC3)CCCC2
Plasmodium falciparum [1]
  inhibition at 5 µM: 77%
Plasmodium falciparum [6]
  EC50: 0.695 µM
Trypanosoma cruzi
  IC50: 9.02 µM
[3]
  IC50: > 32 µM
[4]
  IC50: > 32 µM
Leishmania infantum
  IC50: > 32 µM
[5]
  IC50: 32 µM

## Cc1ccc(Cl)cc1N1CCN(CCCNC(=O)C2CCN(c3nc4ccccc4[nH]3)CC2)CC1
Plasmodium falciparum [1]
  inhibition at 5 µM: 97%
Plasmodium falciparum [6]
  EC50: 1.33 µM
Trypanosoma cruzi
  IC50: 3.74 µM
[3]
  IC50: 1.31 µM
[4]
  IC50: 1.01 µM
Leishmania infantum
  IC50: 4 µM
[5]
  IC50: 14.5 µM

## O=C(NC1CCN(Cc2ccccc2)CC1)c1cc(-c2ccncc2)nc2ccc(Cl)cc12
Plasmodium falciparum [1]
  inhibition at 5 µM: 92%
Plasmodium falciparum [6]
  EC50: 1.02 µM
Trypanosoma cruzi
  IC50: 4.59 µM
[3]
  IC50: 4.03 µM
[4]
  IC50: 3.51 µM
Leishmania infantum
  IC50: 16.2 µM
[5]
  IC50: > 32 µM

## c1ccc(-c2ccc(-c3nc4ccccc4[nH]3)cc2)cc1
Plasmodium falciparum [1]
  inhibition at 5 µM: 52%
Plasmodium falciparum [6]
  EC50: 1.07 µM
Trypanosoma cruzi
  IC50: > 32 µM
[3]
  IC50: > 32 µM
[4]
  IC50: > 32 µM
Leishmania infantum
  IC50: > 32 µM
[5]
  IC50: > 32 µM

## O=C(NC1CCN(Cc2ccccc2)CC1)c1cc(-c2cccnc2)nc2ccc(Cl)cc12
Plasmodium falciparum [1]
  inhibition at 5 µM: 91%
Plasmodium falciparum [6]
  EC50: 1.01 µM
Trypanosoma cruzi
  IC50: > 32 µM
[3]
  IC50: 14 µM
[4]
  IC50: 3.83 µM
Leishmania infantum
  IC50: > 32 µM
[5]
  IC50: > 32 µM

## O=c1nc(C=Cc2ccc(Cl)cc2)oc2ccccc12
Plasmodium falciparum [1]
  inhibition at 5 µM: 76%
Plasmodium falciparum [6]
  EC50: 0.995 µM
Trypanosoma cruzi
  IC50: > 32 µM
[3]
  IC50: > 32 µM
[4]
  IC50: 27.4 µM
Leishmania infantum
  IC50: > 32 µM
[5]
  IC50: > 32 µM

## COc1ccc(-c2nc3cc(Cc4ccc5[nH]c(-c6ccc(OC)cc6)nc5c4)ccc3[nH]2)cc1
Plasmodium falciparum [1]
  inhibition at 5 µM: 98%
Plasmodium falciparum [6]
  EC50: 0.176 µM
Trypanosoma cruzi
  IC50: < 0.125 µM
[3]
  IC50: 0.179 µM
[4]
  IC50: < 0.125 µM
Leishmania infantum
  IC50: 4.06 µM
[5]
  IC50: 4.76 µM

## Cc1ccccc1OCCSc1nc2ccc(NC(=O)c3ccccc3)cc2s1
Plasmodium falciparum [1]
  inhibition at 5 µM: 93%
Plasmodium falciparum [6]
  EC50: 1.12 µM
Trypanosoma cruzi
  IC50: > 32 µM
[3]
  IC50: > 32 µM
[4]
  IC50: > 32 µM
Leishmania infantum
  IC50: > 32 µM
[5]
  IC50: > 32 µM

## O=C(Cc1ccccc1)NC(c1ccc(Cl)cc1)c1c(O)ccc2ccccc12 (centres undefined)
Plasmodium falciparum [1]
  inhibition at 5 µM: 97%
Plasmodium falciparum [6]
  EC50: 1.14 µM
Trypanosoma cruzi
  IC50: 3.65 µM
[3]
  IC50: 4.06 µM
[4]
  IC50: 3.7 µM
Leishmania infantum
  IC50: 4.76 µM
[5]
  IC50: 8.22 µM

## O=C1c2ccccc2C2=Nc3ccccc3SC(c3cccc(F)c3)C12 (centres undefined)
Plasmodium falciparum [1]
  inhibition at 5 µM: 94%
Plasmodium falciparum [6]
  EC50: 0.415 µM
Trypanosoma cruzi
  IC50: > 32 µM
[3]
  IC50: > 32 µM
[4]
  IC50: 7.17 µM
Leishmania infantum
  IC50: > 32 µM
[5]
  IC50: > 32 µM

Source: ChEMBL document CHEMBL2028040, “Malaria Box”
